Reference: PMC10541198, “Specific quinone reductase 2 inhibitors reduce metabolic burden and reverse Alzheimer’s disease phenotype in mice” (The Journal of Clinical Investigation, 2023)
Where “and” joins values, the source holds several entries; their conditions need not be identical. Identical values can stand only once.

Test system: HCT116 cells
Assay: H2DCFDA detection of cellular ROS
Assay type: cell-based, human
Details: 20 μM, 3 hour, WT HCT116
Protocol: To establish direct target engagement and cell membrane permeability, a cellular thermal shift assay (CETSA) was carried out, using leading QR2is YB’s-537, 800, and 808. Following a 1 hour preincubation with 5 μM of the QR2is or vehicle, thermal aggregation curves (Taggs) of QR2 expressed in HEK293T were measured in increasing temperatures. All QR2is increased QR2 thermal stability compared with vehicle (Supplemental Figure 2A). Based on the Tagg curves we selected 73°C for isothermal dose-response fingerprint (IDTRF) experiments (Supplemental Figure 2B). The ITDRF allowed the relative quantification of the binding of each of the QR2is to QR2, measured as the EC50 (Figure 3A). […] We evaluated the safety of the QR2is using cell toxicity and viability assays. […] Cell viability was assessed by XTT assay in HEK239T cells, using a dose response, with 3- or 24-hour incubations of the leading QR2is. […] We then assessed WT HCT116 cells by immunoblot (Supplemental Figure 2, C and D), after being treated with YB-800 (2 μM) for 4 consecutive days. […]
The cells wer e har ves t ed a nd resuspended in 1% cl ear m e di um ( DM EM – with no phenol red, suppl em ent ed with 1% FBS, 1% L-Glutamine and 1% Penicillin-Streptomycin). […] The plate wa s then incubated in the dark at 37°C f or 3 h, before reading in a Tecan M200 Pro florescence microplate reader, using wavelengths Ex/Em = 485 nm / 535 nm . […]

SMILES: Cc1ccc(-c2cn3cccc(C)c3n2)cc1S(=O)(=O)N1CCC(C)CC1 [YB-800]
- ROS levels (replicates): 0.005141 and -0.1557 and -0.2104 and -0.08593 and -0.04485
